Read-outs that look alike come from different tables or passages of the source.
How the values were obtained:
Hepa 1-6 cells [1] = assay: Propidium iodide (PI) exclusion assay, flow cytometry; assay type: cell-based, murine
Experimental: Cells were grown on 5-cm^2 flasks (CORNING) and treated with paclitaxel and docetaxel as set out above. Propidium iodide (10 μg/ml) was then added for 15 minutes incubation at 37° C. Then, medium was collected prior to harvest of the adherent cells. Both suspended and attached cells were collected and resuspended with 500 μl PBS for flow cytometry analysis as set out below. Debris signals were removed by FSC-SSC gating.
(§1) Cells (10000) were analyzed on a Becton Dickinson FACS Calibur flow cytometer using an argon-ion laser (15 mWatt) with incident beam at 488 nm. For PI exclusion assay, red fluorescence was collected through a 585 nm filter and the cell debris signals were removed by FSC-SSC gating. Data were acquired and analyzed using FACS/CELL Quest software on a Power Macintosh 7600/120 computer. Apoptotic cells and cells at specific cycle phases were determined by ModFit LT software.
Data are mean±standard error of mean from duplicated sample of at least three independent experiments. Cells were treated with drugs for 24-72 hours, and membrane permeability was measured by flowcytometric analysis of propidium exclusion in viable hepatoma cells. Data are the percentage of cells with intact cell membrane as compared to control

Hep G2 cells [2] = assay: DNA fragmentation electrophoresis analysis; assay type: cell-based, human; settings: Hep G2, 0.1 and 1 μM, 72 hours
Experimental: DNA fragmentation assessment was according to the method Herrmann et al, Nucleic Acids Res., 22, 5506-5507, 1994.
Briefly, HEP G2 cells (2×10^7) were treated for 72 hours with paclitaxel and docetaxel as set out above and centrifuged. The thus obtained cell pellets were resuspended with NP-40 lysis buffer (1% NP-40 in 20 mM EDTA, 50 mM Tris-HCl, pH 7.5). After lysis of cells for a few seconds, the supernatants were collected (5 minutes at 1600×g). The extraction was repeated with the same lysis buffer. SDS (final concentration 1%) and RNase were added (final concentration 2.5 μg/μl) to supernatants and incubated for 2 hours at 56° C. followed by digestion with proteinase K (2.5 μg/μl) for 2 hours at 37° C. Then, the mixtures were added to 10 M ammonium acetate prior to 100% ethanol precipitation for 30 minutes at −20° C. The DNA was collected by centrifugation (10 min at 12000 ×g) followed by electrophoresis on 1.5% agarose gel.
In FIG. 3, M is a 100 base pair marker. […] Lanes 2 and 3 show mean paclitaxel (0.1 and 1 μM) treatment groups. Lanes 4 and 5 show mean docetaxel (0.1 and 1 μM) treatment groups.

Hepa 1-6 cells [3] = settings: Hepa 1-6, 1 μM
Experimental: (§2) The experiments detailed below involve human hepatoma cell lines Hep3B (ATCC designation HB 8064), HepG2 (ATCC designation HB 8065) and HA22T/VGH, and murine hepatoma cell line Hepa 1-6. These cells were cultured in DMEM (GIBCO, BRL) containing 10% fetal bovine serum (Hyclone), 0.01 mg/ml gentamycin and 0.1 mM non-essential amino acid. Cells were grown in a CO2 incubator at 37° C., with 5% CO2 and 95% filtered air.
(§3) In the experiments detailed below the above hepatoma cells were treated with different concentrations of paclitaxel (0.001-10 μM) and docetaxel (0.001-10 μM) for 24 hours and 72 hours. Paclitaxel was dissolved in dimethylsulfoxide (DMSO) and docetaxel was dissolved in ethanol as stock solutions. The final concentration of vehicle was less than 0.1%.
(§4) Cells were cultured in a 96 well cell culture cluster (COSTAR) at a density of 4×10^4 cells/ml. After drug treatment for 24 hours or 72 hours, medium was discarded and replaced with an equal volume (100 μl) of fresh medium containing MTT (0.456 mg/ml; 3-[4,5-Dimethylthiazol-2-yl]2,5-diphenyl-tetrazolium bromide) and incubated for 1.5 hours at 37° C. The fresh medium was then discarded, and 100 μl DMSO was then added. Cell viability was determined by colorimetric comparison by reading OD values from a microplate reader (SPECTRA MAX250) at an absorption wavelength of 570 nm.
(§5) Data are the mean i standard error of mean from duplicate samples of three independent experiments.

Hep 3B cells [4] = settings: 0.01 μM, 72 hours
Experimental: as §2, §3, §4, §5

[5] = test system: hepatoma cell lines (Hep G2, Hep 3B, HA22T/VGH and Hepa 1-6); assay: Cell viability study: MTT assay, all lines (FIG. 1); assay type: cell-based
Hepa 1-6 cells [6] = assay: Flow cytometric analysis of DNA content (cell cycle, sub-G0/G1); assay type: cell-based, murine
Experimental: (§6) Lysing buffer (0.5% Triton X-100, 0.2 μg/ml Na2EDTA.2H2O, and 1% bovine serum albumin in PBS) was added to the cell pellets which were then left on ice for 15 minutes. 100% methanol pre-cooled to −20° C. was then added to the mixture, which was then centrifuged at 300×g for 5 minutes. The supernatant was discarded and the cell pellet was washed with PBS. The washed pellet was stained with a DNA staining solution (50 μg/ml propidium iodide, and 5 kunitz/ml of RNase A) for 30 minutes at 4° C. in the dark. The DNA content of each cell was measured using a Becton Dickinson FACS Calibur flow cytometer as set out below.
as §1
(§7) Table 1 gives figures for cell membrane permeability of the hepatoma cells, following treatment with paclitaxel and docetaxel. Table 2 details the percentage of apoptotic (sub-G0/G1) cells found after paclitaxel and docetaxel treatment.

HA22T/VGH cells = assay: as above; assay type: cell-based, human
Experimental: as §6, §1, §7

Hep G2 cells [7] = assay: as above; assay type: cell-based, human; settings: for apoptotic percentages (sub-G0/G1 cells): 0.001 μM
Experimental: as §6, §1, §7

Hep 3B cells [8] = assay: as above; assay type: cell-based, human
Experimental: as §6, §1, §7

## CC(=O)O[C@@]12CO[C@@H]1C[C@H](O)[C@@]1(C)C(=O)[C@H](O)C3=C(C)[C@@H](OC(=O)[C@H](O)[C@@H](NC(=O)OC(C)(C)C)c4ccccc4)C[C@@](O)([C@@H](OC(=O)c4ccccc4)[C@H]21)C3(C)C [Docetaxel]
Hepa 1-6 cells [1]; Hepa 1-6, 24 hrs, 0.01 μM
  percentage of cells with intact cell membrane as compared to control: 94.45 ± 1.9%
Hepa 1-6 cells [1]; Hepa 1-6, 24 hrs, 0.1 μM
  percentage of cells with intact cell membrane as compared to control: 83.35 ± 7.2%
Hepa 1-6 cells [1]; Hepa 1-6, 24 hrs, 1 μM
  percentage of cells with intact cell membrane as compared to control: 81.88 ± 8.7%
Hepa 1-6 cells [1]; Hepa 1-6, 72 hrs, 0.01 μM
  percentage of cells with intact cell membrane as compared to control: 77.18 ± 1.4%
Hepa 1-6 cells [1]; Hepa 1-6, 72 hrs, 0.1 μM
  percentage of cells with intact cell membrane as compared to control: 43.94 ± 3.4%
Hepa 1-6 cells [1]; Hepa 1-6, 72 hrs, 1 μM
  percentage of cells with intact cell membrane as compared to control: 38.90 ± 4.2%
Hep G2 cells [2]
  DNA fragmentation (agarose gel, FIG. 3): induced DNA fragmentation
Hepa 1-6 cells [3]; 24 hours
  maximum cytotoxicity: 65.34%
Hepa 1-6 cells [3]; 72 hours
  maximum cytotoxicity: 30.71%
Hep 3B cells [4]
  reduction of viability: 37.06%
[5]; 0.01 and 0.1 μM, in nearly every case
  cell viability compared with paclitaxel (FIG. 1): decreased viability
[5]; concentrations of up to 1 μM
  in vitro activity against HCC cells compared with paclitaxel: significantly higher
Hepa 1-6 cells [6]; Hepa 1-6, 24 hrs, 0.01 mM (text: μM)
  % of apoptotic (sub-G0/G1) cells: 52.81%
Hepa 1-6 cells [6]; Hepa 1-6, 24 hrs, 0.1 mM (text: μM)
  % of apoptotic (sub-G0/G1) cells: 50.76%
Hepa 1-6 cells [6]; Hepa 1-6, 24 hrs, 1 mM (text: μM)
  % of apoptotic (sub-G0/G1) cells: 53.8%
Hepa 1-6 cells [6]; Hepa 1-6, 72 hrs, 0.01 mM (text: μM)
  % of apoptotic (sub-G0/G1) cells: 31.25%
Hepa 1-6 cells [6]; Hepa 1-6, 72 hrs, 0.1 mM (text: μM)
  % of apoptotic (sub-G0/G1) cells: 53.95%
Hepa 1-6 cells [6]; Hepa 1-6, 72 hrs, 1 mM (text: μM)
  % of apoptotic (sub-G0/G1) cells: 62.49%
HA22T/VGH cells; 24 hrs, 0.01 mM (text: μM)
  % of apoptotic (sub-G0/G1) cells: 41.75%
HA22T/VGH cells; 24 hrs, 0.1 mM (text: μM)
  % of apoptotic (sub-G0/G1) cells: 18.61%
HA22T/VGH cells; 24 hrs, 1 mM (text: μM)
  % of apoptotic (sub-G0/G1) cells: 22.94%
HA22T/VGH cells; 72 hrs, 0.01 mM (text: μM)
  % of apoptotic (sub-G0/G1) cells: 56.64%
HA22T/VGH cells; 72 hrs, 0.1 mM (table head; text: μM)
  % of apoptotic (sub-G0/G1) cells: 58.61%
HA22T/VGH cells; 72 hrs, 1 mM (table head; text: μM)
  % of apoptotic (sub-G0/G1) cells: 60.98%
Hep G2 cells [7]; Hep G2, 24 hours
  apoptotic percentages (sub-G0/G1 cells): 31.02%
Hep G2 cells [7]; Hep G2, 24 hrs, 0.01 mM (text: μM)
  % of apoptotic (sub-G0/G1) cells: 45.24%
Hep G2 cells [7]; Hep G2, 24 hrs, 0.1 mM (text: μM)
  % of apoptotic (sub-G0/G1) cells: 38.77%
Hep G2 cells [7]; Hep G2, 24 hrs, 1 mM (text: μM)
  % of apoptotic (sub-G0/G1) cells: 28.33%
Hep G2 cells [7]; Hep G2, 72 hours
  apoptotic percentages (sub-G0/G1 cells): 21.92%
Hep G2 cells [7]; Hep G2, 72 hrs, 0.01 mM (text: μM)
  % of apoptotic (sub-G0/G1) cells: 42.45%
Hep G2 cells [7]; Hep G2, 72 hrs, 0.1 mM (text: μM)
  % of apoptotic (sub-G0/G1) cells: 42.44%
Hep G2 cells [7]; Hep G2, 72 hrs, 1 mM (text: μM)
  % of apoptotic (sub-G0/G1) cells: 56.66%
Hep 3B cells [8]; 24 hrs, 0.01 mM (text: μM)
  % of apoptotic (sub-G0/G1) cells: 59.14%
Hep 3B cells [8]; 24 hrs, 0.1 mM (table head; text: μM)
  % of apoptotic (sub-G0/G1) cells: 58.67%
Hep 3B cells [8]; 24 hrs, 0.1 mM (table head; text: μM), listed as docetaxel
  % of apoptotic (sub-G0/G1) cells: 58.69%
Hep 3B cells [8]; 24 hrs, 1 mM (text: μM)
  % of apoptotic (sub-G0/G1) cells: 65.74%
Hep 3B cells [8]; 72 hrs, 0.01 mM (text: μM)
  % of apoptotic (sub-G0/G1) cells: 64.12%
Hep 3B cells [8]; 72 hrs, 0.1 mM (text: μM)
  % of apoptotic (sub-G0/G1) cells: 81.66%
Hep 3B cells [8]; 72 hrs, 1 mM (text: μM)
  % of apoptotic (sub-G0/G1) cells: 79.33%

From patent US20080045584A1, “Use of Docetaxel for Treating Hepatocellular Carcinoma” (priority 1999, published 2008)
